# Results published in US6737383B1, “Herbicidal oxadiazolidines” (priority 1999, dated 2004).
# Key:
# bamyardgrass = experiment: Test B flood test barnyardgrass; assay type: in vivo, Echinochloa crus-galli
# Method in brief: (§1)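 Flood test on plants grown to the 2-leaf stage; treated plants kept in greenhouse twelve to sixteen days, then visually rated against controls on a 0 (no effect) to 10 (complete control) scale.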
# corn = experiment: Test B pre/postemergence corn; assay type: in vivo, Zea mays
# Method in brief: (§2)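 Herbicidal effect was estimated by eye on a ten-point control scale after plants spent twelve to sixteen days in a greenhouse following soil or foliar treatment. Foliar sprays targeted plants at one to four leaves; all doses were formulated in a non-phytotoxic solvent with surfactant.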
# wild oat = experiment: Test B pre/postemergence wild oat; assay type: in vivo, Avena fatua
# Method in brief: as §2
# rape = experiment: Test B pre/postemergence rape; assay type: in vivo, Brassica napus
# Method in brief: as §2
# purple nutsedge = experiment: Test B pre/postemergence purple nutsedge; assay type: in vivo, Cyperus rotundus
# Method in brief: as §2
# sugar beet = experiment: Test B pre/postemergence sugar beet; assay type: in vivo, Beta vulgaris
# Method in brief: as §2
# smallflower flatsedge = experiment: Test B flood test smallflower flatsedge; assay type: in vivo, Cyperus difformis
# Method in brief: as §1
# crabgrass = experiment: Test B pre/postemergence crabgrass; assay type: in vivo, Digitaria sanguinalis
# Method in brief: as §2
# soybean = experiment: Test B pre/postemergence soybean; assay type: in vivo, Glycine max
# Method in brief: as §2
# pigweed = experiment: Test B pre/postemergence pigweed; assay type: in vivo, Amaranthus retroflexus
# Method in brief: as §2
# surinam grass = experiment: Test B pre/postemergence surinam grass; assay type: in vivo, Brachiaria decumbens
# Method in brief: as §2
# blackgrass = experiment: Test B pre/postemergence blackgrass; assay type: in vivo, Alopecurus myosuroides
# Method in brief: as §2
# cocklebur = experiment: Test B pre/postemergence cocklebur; assay type: in vivo, Xanthium strumarium
# Method in brief: as §2
# wheat = experiment: Test B pre/postemergence wheat; assay type: in vivo, Triticum aestivum
# Method in brief: as §2
# velvetleaf = experiment: Test B pre/postemergence velvetleaf; assay type: in vivo, Abutilon theophrasti
# Method in brief: as §2
# bedstraw = experiment: Test B pre/postemergence bedstraw; assay type: in vivo, Galium aparine
# Method in brief: as §2
# [1] = Rate 62 g/ha, headed Pre-emergence (flood test species), scale 0 to 10 (0 no effect, 10 complete control)
# [2] = Rate 125 g/ha, Pre-emergence, flood test species, scale 0 to 10 where 0 is no effect and 10 is complete control
# [3] = Rate 250 g/ha, Pre-emergence, flood-test species, scale 0 to 10, 0 is no effect, 10 is complete control
# [4] = Rate 500 g/ha, Pre-emergence, flood test species, scale 0 to 10 (0 no effect, 10 complete control)
# [5] = Postemergence, Rate 125 g/ha, scale 0 to 10, 0 is no effect, 10 is complete control
# [6] = Preemergence, Rate 62 g/ha, scale of 0 to 10 where 0 is no effect and 10 is complete control
# [7] = Preemergence, Rate 250 g/ha, scale of 0 to 10 where 0 is no effect and 10 is complete control
# [8] = Preemergence, Rate 500 g/ha, scale of 0 to 10 where 0 is no effect and 10 is complete control
# [9] = Rate 62 g/ha, Postemergence, scale 0 to 10 (0 no effect, 10 complete control)
# [10] = Rate 500 g/ha, Postemergence, scale 0 to 10, 0 no effect, 10 complete control
# [11] = Rate 250 g/ha, Postemergence, scale of 0 to 10 where 0 is no effect and 10 is complete control
smiles,measurement,setting,value
Cc1c(-n2c(=O)on(C(=O)N(c3ccc(F)cc3F)C(C)C)c2=O)ccc2ccccc12 [Compound 337],Barnyardgrass plant response rating,bamyardgrass; [1],0
same,Barnyardgrass plant response rating,bamyardgrass; [2],0
same,Barnyardgrass plant response rating,bamyardgrass; [3],0
same,Barnyardgrass plant response rating,bamyardgrass; [4],5
same,"Plant response rating, Corn",corn; [5],0
same,Corn plant response rating,corn; [6],0
same,Corn plant response rating (0 to 10 scale),"corn; Preemergence, Rate 125 g/ha",0
same,Corn plant response rating,corn; [7],0
same,Corn plant response rating,corn; [8],0
same,Corn plant response rating,corn; [9],0
same,"Plant response rating, Corn",corn; [10],0
same,"Plant response rating, Wild oats",wild oat; [5],0
same,Wild oats plant response rating,wild oat; [6],0
same,Wild oats plant response rating (0 to 10 scale),"wild oat; Preemergence, Rate 125 g/ha",0
same,Wild oats plant response rating,wild oat; [7],0
same,Wild oats plant response rating,wild oat; [8],0
same,Wild oats plant response rating,wild oat; [9],0
same,"Plant response rating, Wild oats",wild oat; [10],0
same,"Plant response rating, Rape",rape; [5],0
same,Rape plant response rating,rape; [6],0
same,Rape plant response rating (0 to 10 scale),"rape; Preemergence, Rate 125 g/ha",0
same,Rape plant response rating,rape; [7],0
same,Rape plant response rating,rape; [8],0
same,Rape plant response rating,rape; [9],0
same,"Plant response rating, Rape",rape; [10],0
same,"Plant response rating, Nutsedge",purple nutsedge; [5],0
same,Nutsedge plant response rating,purple nutsedge; [6],0
same,Nutsedge plant response rating (0 to 10 scale),"purple nutsedge; Preemergence, Rate 125 g/ha",0
same,Nutsedge plant response rating,purple nutsedge; [7],0
same,Nutsedge plant response rating,purple nutsedge; [8],0
same,Nutsedge plant response rating,purple nutsedge; [9],0
same,"Plant response rating, Nutsedge",purple nutsedge; [10],0
same,"Plant response rating, Sugarbeets",sugar beet; [5],0
same,Sugarbeets plant response rating,sugar beet; [6],0
same,Sugarbeets plant response rating (0 to 10 scale),"sugar beet; Preemergence, Rate 125 g/ha",0
same,Sugarbeets plant response rating,sugar beet; [7],0
same,Sugarbeets plant response rating,sugar beet; [8],0
same,Sugarbeets plant response rating,sugar beet; [9],0
same,"Plant response rating, Sugarbeets",sugar beet; [10],0
same,S. Flatsedge plant response rating,smallflower flatsedge; [1],0
same,S. Flatsedge plant response rating,smallflower flatsedge; [2],0
same,S. Flatsedge plant response rating,smallflower flatsedge; [3],0
same,S. Flatsedge plant response rating,smallflower flatsedge; [4],0
same,"Plant response rating, Crabgrass",crabgrass; [5],0
same,Crabgrass plant response rating,crabgrass; [6],0
same,Crabgrass plant response rating (0 to 10 scale),"crabgrass; Preemergence, Rate 125 g/ha",0
same,Crabgrass plant response rating,crabgrass; [7],0
same,Crabgrass plant response rating,crabgrass; [8],3
same,Crabgrass plant response rating,crabgrass; [9],0
same,"Plant response rating, Crabgrass",crabgrass; [10],0
same,"Plant response rating, Soybean",soybean; [5],1
same,Soybean plant response rating,soybean; [6],0
same,Soybean plant response rating (0 to 10 scale),"soybean; Preemergence, Rate 125 g/ha",0
same,Soybean plant response rating,soybean; [7],0
same,Soybean plant response rating,soybean; [8],0
same,Soybean plant response rating,soybean; [9],1
same,"Plant response rating, Soybean",soybean; [10],2
same,"Plant response rating, Redroot pigweed",pigweed; [5],0
same,Redroot pigweed plant response rating,pigweed; [6],0
same,Redroot pigweed plant response rating (0 to 10 scale),"pigweed; Preemergence, Rate 125 g/ha",0
same,Redroot pigweed plant response rating,pigweed; [7],0
same,Redroot pigweed plant response rating,pigweed; [8],0
same,Redroot pigweed plant response rating,pigweed; [9],0
same,"Plant response rating, Redroot pigweed",pigweed; [10],0
same,"Plant response rating, B. signalgrass",surinam grass; [5],0
same,B. signalgrass plant response rating,surinam grass; [6],0
same,"B. signalgrass plant response rating (0 to 10 scale, 0 is no effect, 10 is complete control)","surinam grass; Preemergence, Rate 125 g/ha",0
same,B. signalgrass plant response rating,surinam grass; [7],0
same,B. signalgrass plant response rating,surinam grass; [8],0
same,B. signalgrass plant response rating,surinam grass; [9],0
same,"Plant response rating, B. signalgrass",surinam grass; [11],0
same,"Plant response rating, B. signalgrass",surinam grass; [10],0
same,"Plant response rating, Blackgrass",blackgrass; [5],0
same,Blackgrass plant response rating,blackgrass; [6],0
same,Blackgrass plant response rating (0 to 10 scale),"blackgrass; Preemergence, Rate 125 g/ha",0
same,Blackgrass plant response rating,blackgrass; [7],2
same,Blackgrass plant response rating,blackgrass; [8],3
same,Blackgrass plant response rating,blackgrass; [9],0
same,"Plant response rating, Blackgrass",blackgrass; [11],0
same,"Plant response rating, Blackgrass",blackgrass; [10],0
same,"Plant response rating, Cocklebur",cocklebur; [5],0
same,Cocklebur plant response rating,cocklebur; [6],0
same,Cocklebur plant response rating (0 to 10 scale),"cocklebur; Preemergence, Rate 125 g/ha",0
same,Cocklebur plant response rating,cocklebur; [7],0
same,Cocklebur plant response rating,cocklebur; [8],0
same,Cocklebur plant response rating,cocklebur; [9],0
same,"Plant response rating, Wheat",wheat; [5],0
same,Wheat plant response rating,wheat; [6],0
same,Wheat plant response rating (0 to 10 scale),"wheat; Preemergence, Rate 125 g/ha",0
same,Wheat plant response rating,wheat; [7],0
same,Wheat plant response rating,wheat; [8],0
same,Wheat plant response rating,wheat; [9],0
same,"Plant response rating, Wheat",wheat; [10],0
same,"Plant response rating, Velvetleaf",velvetleaf; [5],0
same,Velvetleaf plant response rating,velvetleaf; [6],0
same,Velvetleaf plant response rating (0 to 10 scale),"velvetleaf; Preemergence, Rate 125 g/ha",0
same,Velvetleaf plant response rating,velvetleaf; [7],0
same,Velvetleaf plant response rating,velvetleaf; [8],0
same,Velvetleaf plant response rating,velvetleaf; [9],0
same,"Plant response rating, Velvetleaf",velvetleaf; [10],0
same,"Plant response rating, Bedstraw",bedstraw; [5],1
same,Bedstraw plant response rating,bedstraw; [6],0
same,Bedstraw plant response rating (0 to 10 scale),"bedstraw; Preemergence, Rate 125 g/ha",0
same,Bedstraw plant response rating,bedstraw; [7],0
same,Bedstraw plant response rating,bedstraw; [8],0
same,Bedstraw plant response rating,bedstraw; [9],0
same,"Plant response rating, Bedstraw",bedstraw; [11],2
same,"Plant response rating, Bedstraw",bedstraw; [10],4
